Reference: patent US5688938A, “Calcium receptor-active molecules” (priority 1995, dated 1997)
Entries after “also recorded” stand apart in the source; their conditions may differ.

How the values were obtained:
[1] = molecular target: T1, parathyroid cell calcium receptor (Bos taurus, UniProt P35384); experiment: cell-based; format: cell-based
T1 sequence (P35384 21-1085 limits assumed): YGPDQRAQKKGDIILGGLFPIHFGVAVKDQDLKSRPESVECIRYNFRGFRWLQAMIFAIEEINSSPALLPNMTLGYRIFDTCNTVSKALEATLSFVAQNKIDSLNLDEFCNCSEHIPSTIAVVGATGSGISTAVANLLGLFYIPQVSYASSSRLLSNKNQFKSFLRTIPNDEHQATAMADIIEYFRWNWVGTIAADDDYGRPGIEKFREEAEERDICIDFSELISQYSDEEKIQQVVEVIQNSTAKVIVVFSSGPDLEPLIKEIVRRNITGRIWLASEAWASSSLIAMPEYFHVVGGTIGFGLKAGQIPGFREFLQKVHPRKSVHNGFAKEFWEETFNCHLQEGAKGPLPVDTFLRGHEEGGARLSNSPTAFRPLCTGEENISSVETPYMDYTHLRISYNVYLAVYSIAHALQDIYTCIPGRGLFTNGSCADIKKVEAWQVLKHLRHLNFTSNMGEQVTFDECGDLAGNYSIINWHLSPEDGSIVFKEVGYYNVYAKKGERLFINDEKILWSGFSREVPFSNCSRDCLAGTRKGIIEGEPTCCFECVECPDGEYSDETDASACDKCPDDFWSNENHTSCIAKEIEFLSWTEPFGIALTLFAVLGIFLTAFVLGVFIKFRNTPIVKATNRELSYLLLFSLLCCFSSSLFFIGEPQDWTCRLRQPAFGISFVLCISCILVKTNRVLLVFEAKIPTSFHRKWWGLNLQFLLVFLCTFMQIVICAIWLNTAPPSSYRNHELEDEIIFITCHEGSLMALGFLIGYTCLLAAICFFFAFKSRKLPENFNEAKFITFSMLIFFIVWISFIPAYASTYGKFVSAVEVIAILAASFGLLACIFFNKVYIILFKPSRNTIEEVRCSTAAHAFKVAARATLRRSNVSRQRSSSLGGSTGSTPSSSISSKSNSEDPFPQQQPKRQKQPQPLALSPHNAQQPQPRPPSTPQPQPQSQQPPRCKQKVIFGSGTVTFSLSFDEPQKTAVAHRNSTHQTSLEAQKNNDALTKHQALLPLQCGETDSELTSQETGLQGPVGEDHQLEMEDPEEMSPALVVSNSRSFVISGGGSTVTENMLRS
Method: For example,.bovine parathyroid cells loaded with fura-2 are initially suspended in buffer containing 0.5 mM CaCl2. A test substance is added to the cuvette in a small volume (5-15 μl) and changes in the fluorescence signal are measured. Cumulative increases in the concentration of the test substance are made in the cuvette until some predetermined concentration is achieved or no further changes in fluorescence are noted.
This section describes procedures used to obtain and treat parathyroid cells from calves and humans. […] Human parathyroid glands, were obtained from patients undergoing surgical removal of parathyroid tissue for primary or uremic hyperparathyroidism (uremic HPT), and were treated similarly to bovine tissue.
Glands were trimmed of excess fat and connective tissue and then minced with fine scissors into cubes approximately 2-3 mm on a side. Dissociated parathyroid cells were prepared by collagenase digestion and then purified by centrifugation in Percoll buffer. The resultant parathyroid cell preparation was essentially devoid of red blood cells, adipocytes, and capillary tissue as assessed by phase contrast microscopy and Sudan black B staining. Dissociated and purified parathyroid cells were present as small clusters containing 5 to 20 cells.
The cells were then transferred to plastic flasks (75 or 150 cm^2 ; Falcon) and incubated overnight at 37° C. in a humid atmosphere of 5% CO2. No serum is added to these overnight cultures, since its presence allows the cells to attach to the plastic, undergo proliferation, and dedifferentiate. Cells cultured under the above conditions were readily removed from the flasks by decanting, and show the same viability as freshly prepared cells.
The cells were then pelleted, resuspended in the same buffer, but lacking the ester, and incubated a further 15 minutes at 37° C. The cells were subsequently washed twice with PCB containing 0.5 mM CaCl2 and 0.5% BSA and maintained at room temperature (about 20° C.). Immediately before use, the cells were diluted five-fold with prewarmed 0.5mM CaCl2 -PCB to obtain a final BSA concentration of 0.1%. The concentration of cells in the cuvette used for fluorescence recording was 1-2×10^6 /ml.
The fluorescence of indicator-loaded cells was measured at 37° C. in a spectrofluorimeter (Biomedical Instrumentation Group, University of Pennsylvania, Philadelphia, Pa.) equipped with a thermostated cuvette holder and magnetic stirrer using excitation and emission wavelengths of 340 and 510 nm, respectively. […] Leakage of dye is dependent on temperature and most occurs within the first 2 minutes after warming the cells in the cuvette. Dye leakage increases only very slowly thereafter. To correct the calibration for dye leakage, cells were placed in the cuvette and stirred at 37° C. for 2-3 minutes. The cell suspension was then removed, the cells pelleted, and the supernatant returned to a clean cuvette. […] This estimate was subtracted from the apparent Fmin.
Dissociated bovine parathyroid cells were purified on gradients of Percoll and cultured overnight in serum-free medium. […] That is,

[2] = serum/blood calcium, PTH, albumin and phosphate in rats, intraperitoneal; format: in vivo, rat; settings: 10 mg/kg i.p., 1 hour, normal diet
Method: Compounds shown to activate the bovine parathyroid cell calcium receptor in vitro were tested for hypocalcemic activity in vivo. […] […] […] Serum total calcium, albumin and phosphate were measured by techniques well known in the art.

[3] = serum/plasma Ca^2+, PTH and calcitonin in rats, oral; format: in vivo; settings: rat, single oral dose, 3 hours
Text: Rats (male, Sprague-Dawley, 250-300 g) were fed standard rat chow and fasted overnight prior to the experiment. NPS R-467 was suspended in corn oil and administered as a single oral dose through a gavage needle. Three hours later a sample of blood was taken from the tail vein and assessed for ionized Ca^2+ levels.

[4] = test system: parathyroid cell calcium receptor; experiment: Cl^- current in Xenopus oocytes injected with (bovine) parathyroid cell mRNA; format: cell-based; settings: 30 μM
Method: Following incubation, an oocyte was placed into a 100-μl plastic chamber and superfused with MBS at a flow rate of 0.5 ml/min using a peristaltic pump. Test molecules or inorganic polycations were added by rapidly moving the tubing into different buffers. Recording and current passing electrodes were constructed from thin-wall capillary tubing pulled to a resistance of 1-3 Mohms and filled with 3M KCl. […] Currents were recorded directly onto a strip chart recorder.

[5] = test system: human parathyroid calcium receptor (HuPCaR 5.2); experiment: intracellular calcium in HEK293 cells transfected with HuPCaR 5.2; format: cell-based; settings: Ca^2+ 10 mM, Mg^2+ 20 mM
Method: Cells obtained from the pool of hygromycin selected HEK293 cells transfected with Cep4B containing the HuPCaR 5.2 insert were plated on collagen coated Aklar squares which had been placed into individual wells of 12-well tissue culture plates. Two to six days later, medium was removed and the cells washed with balanced salt solution and 1 ml of buffer containing 1 μM fura2-AM, 1 mM CaCl2 and 0.1% BSA and […]. Measurements of fluorescence in response to calcium receptor agonists were performed at 37° C. in a spectrofluorimeter using excitation and emission wavelengths of 340 and 510 nm, respectively. For signal calibration, Fmax was determined after addition of ionomycin (4.0 μM) and the apparent Fmin was determined by addition of 0.3M EGTA, 2.5M Tris-HCl; pH 10.

[6] = serum ionized Ca^2+ in parathyroidectomized rats; format: in vivo, rat; settings: 10 mg/kg i.p., 6 hours
Text: To determine the primary target tissue upon which NPS R-467 acts to cause a hypocalcemic response, the parathyroid glands in rats were surgically removed. Animals receiving a total parathyroidectomy become hypocalcemic and are largely dependent upon dietary calcium to maintain serum Ca^2+ homeostasis.

[7] = molecular target: T2, human parathyroid cell calcium receptor (Homo sapiens, UniProt P41180); experiment: Cl^- current in Xenopus oocytes expressing cloned human parathyroid calcium receptor; format: cell-based; settings: pHuPCaR 5.2 and 4.0
T2 construct: cRNA injected in Xenopus oocytes
T2 sequence (P41180 20-1078 R990G/E1011Q): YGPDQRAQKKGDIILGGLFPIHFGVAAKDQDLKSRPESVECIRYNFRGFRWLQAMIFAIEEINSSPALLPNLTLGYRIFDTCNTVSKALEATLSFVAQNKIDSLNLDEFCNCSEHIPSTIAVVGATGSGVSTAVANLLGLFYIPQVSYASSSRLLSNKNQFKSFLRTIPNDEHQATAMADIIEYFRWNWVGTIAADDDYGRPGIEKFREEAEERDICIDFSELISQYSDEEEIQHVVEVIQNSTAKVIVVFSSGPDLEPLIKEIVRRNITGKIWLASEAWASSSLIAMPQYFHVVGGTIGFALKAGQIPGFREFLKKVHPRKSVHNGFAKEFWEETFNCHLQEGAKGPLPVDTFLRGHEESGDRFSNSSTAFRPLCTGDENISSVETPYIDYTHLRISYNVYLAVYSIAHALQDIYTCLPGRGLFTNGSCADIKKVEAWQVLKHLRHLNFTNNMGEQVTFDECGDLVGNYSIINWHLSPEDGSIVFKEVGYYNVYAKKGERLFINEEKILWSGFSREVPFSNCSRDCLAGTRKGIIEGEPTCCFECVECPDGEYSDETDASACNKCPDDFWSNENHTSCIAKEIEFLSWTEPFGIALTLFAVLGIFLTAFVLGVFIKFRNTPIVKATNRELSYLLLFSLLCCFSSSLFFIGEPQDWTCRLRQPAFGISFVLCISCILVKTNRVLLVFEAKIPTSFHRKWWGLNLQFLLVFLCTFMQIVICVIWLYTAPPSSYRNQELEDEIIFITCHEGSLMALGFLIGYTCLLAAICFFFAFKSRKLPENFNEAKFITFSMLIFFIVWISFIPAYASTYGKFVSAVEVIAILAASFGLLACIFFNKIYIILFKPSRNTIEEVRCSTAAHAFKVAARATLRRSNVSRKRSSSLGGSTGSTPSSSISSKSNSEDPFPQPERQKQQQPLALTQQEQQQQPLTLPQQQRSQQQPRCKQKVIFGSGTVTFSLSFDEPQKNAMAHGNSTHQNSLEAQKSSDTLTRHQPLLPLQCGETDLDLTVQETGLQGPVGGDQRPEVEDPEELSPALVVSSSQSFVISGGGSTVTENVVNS
Method: Representative cDNA inserts for both size classes were subcloned into the plasmid vector pBluescript SK. Linearization followed by in vitro transcription using T7 RNA polymerase produced cRNA transcripts. The cRNA transcripts were injected into Xenopus oocytes (150 ng/μl RNA; 50 nl/oocyte) for functional analysis. Following incubation periods of 2-4 days, the oocytes were assayed for the presence of functional calcium receptors. Both clone types gave rise to functional calcium receptors as assessed by the stimulation of calcium-activated chloride currents upon addition of appropriate calcium receptor agonists. […] Thus, both clones encode a functional, human parathyroid cell calcium receptor.
Xenopus oocytes were injected with pHuPCaR 5.2, the 5.2 Kb cDNA encoding a parathyroid cell calcium receptor derived from a human parathyroid cell adenoma. (See Example 27.) After two to three days, Cl^- currents were measured in the oocytes using a two-electrode voltage clamp.

Structure (SMILES): COc1cccc([C@@H](C)NCCCc2ccccc2)c1 [NPS R-467, (R)-(+)-N-(3-phenylpropyl)-α-methyl-3-methoxybenzylamine]
- [Ca^2+]i response in presence of 0.5 mM extracellular Ca^2+ [1]: rapid and transient increase in [Ca^2+ ]i
- [Ca^2+]i response in Ca^2+-free buffer after 10 μM neomycin ([1]; 30 μM NPS R-467): transient increase in [Ca^2+ ]i
- [Ca^2+]i response in Ca^2+-free buffer after 100 μM neomycin ([1]; 30 μM NPS R-467): did not cause an increase in [Ca^2+ ]i
- [Ca^2+]i response in Ca^2+-free buffer ([1]; no extracellular Ca^2+, NPS R-467 30 μM): abolished; also recorded: no increase in [Ca^2+ ]i
- decrease in serum ionized Ca^2+ from control level [2]: 22%
- reduction in serum ionized Ca^2+ [3]: dose-dependent reduction in serum levels of ionized Ca^2+
- Cl^- current in oocytes [4]: rapid increase
- increase in intracellular calcium [5]: Robust increases in intracellular calcium
- change in serum ionized Ca^2+ [6]: did not cause any change
- activation of oocyte-expressed human receptor [7]: activated the oocyte-expressed receptor at about the same concentrations
